# From patent US5288851A, “Renin inhibitors, processes for preparing them, methods for using them, and compositions containing them” (Warner-Lambert Company, priority 1992, dated 1994)
# Molecular target: T1, renin (Homo sapiens, UniProt P00797)
# T1 sequence (P00797 67-406): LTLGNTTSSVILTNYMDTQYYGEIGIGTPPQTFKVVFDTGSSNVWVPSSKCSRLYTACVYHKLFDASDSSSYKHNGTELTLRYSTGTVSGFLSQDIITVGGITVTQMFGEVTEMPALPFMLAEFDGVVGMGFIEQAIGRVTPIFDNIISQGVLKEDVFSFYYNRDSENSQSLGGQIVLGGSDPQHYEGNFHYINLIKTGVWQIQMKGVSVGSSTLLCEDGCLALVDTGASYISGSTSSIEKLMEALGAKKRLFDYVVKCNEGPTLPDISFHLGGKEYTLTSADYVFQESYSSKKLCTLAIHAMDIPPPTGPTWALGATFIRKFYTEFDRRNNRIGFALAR
# Test: in vitro renin inhibitory activity, radioimmunoassay for angiotensin I
# Assay type: biochemical
# Conditions: renin incubated two hours at 37° with substrate angiotensinogen; angiotensin I by radioimmunoassay; molar concentration causing 50% inhibition
# Description: The effectiveness of the aforementioned compounds is determined by a test for in vitro renin inhibitory activity. This activity is determined by a standard radioimmunoassay for angiotensin I. In this assay the enzyme, renin, incubated for two hours at 37° in the presence of a substrate, angiotensinogen, generates the product, angiotensin I. Test compounds are added to the incubation mixture. Relative activity is reported as the IC50, which is the molar concentration of test compound causing a 50% inhibition of the renin activity.
row,Compound,IC50 [nM]
1,"CCC(C)CNC(=O)CC(O)C(CC(C)C)NC(=O)C(Cc1cnc[nH]1)NC(=O)C(Cc1ccccc1)NS(=O)(=O)N(C)C (stereo not drawn) [Me2 NSO2 PHEHISSTANHCH2 CH(CH3)CH2 CH3, Me2 NSO2 --PHE--HIS--STA--NHCH2 CH(CH3)CH2 CH3]",41
2,CCC(C)CNC(=O)CC(O)C(CC(C)C)NC(=O)C(Cc1cnc[nH]1)NC(=O)C(Cc1ccc(OC)cc1)NS(=O)(=O)N(C)C (stereo not drawn) [Me2 NSO2 TYR(OMe)HISSTANHCH2 CH(CH3)CH2 CH3],~3000
3,"C=CC[C@H](NC(=O)[C@H](Cc1ccccc1)NS(=O)(=O)N(C)C)C(=O)N[C@@H](CC(C)C)[C@@H](O)CC(=O)NCC(C)CC (stereo partly drawn) [MeNSO2 PHEALGSTANHCH2 CH(CH3)CH2 CH3, Me2 NSO2 --PHE--ALG--STA--NHCH2 CH(CH3)CH2 CH3]",7

# Further compounds by falling IC50, results first:
row,IC50 [nM],Compound
1,34,Me2 NSO2 --PHE--PGY--STA--NHCH2 CH(CH3)CH2 CH3 [Me2 NSO2 PHEPGYSTANHCH2 CH(CH3)CH2 CH3]
2,1.5,MeNSO2 PHEALGCYSTANHCH2 CH(CH3)CH2 CH3
3,1.1,MeNSO2 PHEPGYCYSTANHCH2 CH(CH3)CH2 CH3
